Read-outs that look alike come from different tables or passages of the source.
How the values were obtained:
Format in all cases: cell-based
HeLa-APL = assay: SRB colorimetric cell growth inhibition assay, HeLa-APL (aplidine resistant); conditions: HELA-APL; for GI50: GI=growth inhibition, read-out: GI50 HELA-APL; for CC50: read-out: LC50 HELA-APL; for IC (TGI): TGI=total growth inhibition (cytostatic effect), read-out: TGI HELA-APL
In short: (§1)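 Growth inhibition (GI), cytostatic total growth inhibition (TGI) and cytotoxic cell-kill (LC) parameters were calculated from SRB-stained cultures held under constant compound exposure, triplicates averaged.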

A-549 = assay: SRB colorimetric cell growth inhibition assay, A-549; conditions: for GI50: GI=growth inhibition, read-out: GI50 A-549; for CC50: read-out: LC50 A-549; for IC (TGI): TGI=total growth inhibition (cytostatic effect), read-out: TGI A-549
In short: as §1

IGROV = assay: SRB colorimetric cell growth inhibition assay, IGROV; conditions: IGROV; for GI50: GI=growth inhibition, read-out: GI50 IGROV; for CC50: read-out: LC50 IGROV; for IC (TGI): TGI=total growth inhibition (cytostatic effect), read-out: TGI IGROV
In short: as §1

DU-145 = assay: SRB colorimetric cell growth inhibition assay, DU-145; conditions: for GI50: GI=growth inhibition, read-out: GI50 DU-145; for CC50: read-out: LC50 DU-145; for IC (TGI): TGI=total growth inhibition (cytostatic effect), read-out: TGI DU-145
In short: as §1

SK-BR-3 = assay: SRB colorimetric cell growth inhibition assay, SK-BR-3; conditions: for GI50: GI=growth inhibition, read-out: GI50 SK-BR-3; for CC50: read-out: LC50 SK-BR-3; for IC (TGI): TGI=total growth inhibition (cytostatic effect), read-out: TGI SK-BR-3
In short: as §1

K-562 = assay: SRB colorimetric cell growth inhibition assay, K-562; conditions: for GI50: GI=growth inhibition, read-out: GI50 K-562; for CC50: read-out: LC50 K-562; for IC (TGI): TGI=total growth inhibition (cytostatic effect), read-out: TGI K-562
In short: as §1

LoVo-Dox = assay: SRB colorimetric cell growth inhibition assay, LoVo-Dox (MDR); conditions: LOVO-DOX; for GI50: GI=growth inhibition, read-out: GI50 LOVO-DOX; for CC50: read-out: LC50 LOVO-DOX; for IC (TGI): TGI=total growth inhibition (cytostatic effect), read-out: TGI LOVO-DOX
In short: as §1

SK-MEL-28 = assay: SRB colorimetric cell growth inhibition assay, SK-MEL-28; conditions: for GI50: GI=growth inhibition, read-out: GI50 MEL-28; for CC50: read-out: LC50 MEL-28; for IC (TGI): TGI=total growth inhibition (cytostatic effect), read-out: TGI MEL-28
In short: as §1

LNCaP = assay: SRB colorimetric cell growth inhibition assay, LNCaP; conditions: LN-caP; for GI50: GI=growth inhibition, read-out: GI50 LN-caP; for CC50: read-out: LC50 LN-caP; for IC (TGI): TGI=total growth inhibition (cytostatic effect), read-out: TGI LN-caP
In short: as §1

HeLa = assay: SRB colorimetric cell growth inhibition assay, HeLa; conditions: for GI50: GI=growth inhibition, read-out: GI50 HELA; for CC50: read-out: LC50 HELA; for IC (TGI): TGI=total growth inhibition (cytostatic effect), read-out: TGI HELA
In short: as §1

LoVo = assay: SRB colorimetric cell growth inhibition assay, LoVo; conditions: for GI50: GI=growth inhibition, read-out: GI50 LOVO; for CC50: read-out: LC50 LOVO; for IC (TGI): TGI=total growth inhibition (cytostatic effect), read-out: TGI LOVO
In short: as §1

PANC-1 = assay: SRB colorimetric cell growth inhibition assay, PANC-1; conditions: for GI50: GI=growth inhibition, read-out: GI50 PANC-1; for CC50: read-out: LC50 PANC-1; for IC (TGI): TGI=total growth inhibition (cytostatic effect), read-out: TGI PANC-1
In short: as §1

IGROV-ET = assay: SRB colorimetric cell growth inhibition assay, IGROV-ET (ET-743 resistant); conditions: IGROV-ET; for GI50: GI=growth inhibition, read-out: GI50 IGROV-ET; for CC50: read-out: LC50 IGROV-ET; for IC (TGI): TGI=total growth inhibition (cytostatic effect), read-out: TGI IGROV-ET
In short: as §1

HT-29 = assay: SRB colorimetric cell growth inhibition assay, HT-29; conditions: for GI50: GI=growth inhibition, read-out: GI50 HT-29; for CC50: read-out: LC50 HT-29; for IC (TGI): TGI=total growth inhibition (cytostatic effect), read-out: TGI HT-29
In short: as §1

[1] = cell killing (cytotoxic effect)
[2] = total growth inhibition (cytostatic effect)
[3] = Homo sapiens, LC=cell killing (cytotoxic effect)
[4] = Homo sapiens, A549, A-549, LC=cell killing (cytotoxic effect)
[5] = Homo sapiens, DU-145, DU-145, LC=cell killing (cytotoxic effect)
[6] = Homo sapiens, SK-BR-3, SK-BR-3, LC=cell killing (cytotoxic effect)
[7] = Homo sapiens, K562, K-562, LC=cell killing (cytotoxic effect)
[8] = Homo sapiens, SK-MEL-28, MEL-28
[9] = Homo sapiens, SK-MEL-28, MEL-28, LC=cell killing (cytotoxic effect)
[10] = Homo sapiens, LNCaP, LC=cell killing (cytotoxic effect)
[11] = Homo sapiens, HeLa, LC=cell killing (cytotoxic effect)
[12] = Homo sapiens, LoVo, LC=cell killing (cytotoxic effect)
[13] = Homo sapiens, PANC-1, PANC-1, LC=cell killing (cytotoxic effect)
[14] = Homo sapiens, HT-29, HT-29, LC=cell killing (cytotoxic effect)

## COc1cc(-c2c3c4cc(OC)c(OC(=O)[C@H](C)N)cc4oc(=O)c3n3ccc4c(OC(=O)[C@H](C)N)c(OC)c(OC)cc4c23)ccc1OC(=O)[C@H](C)N [Compound 16]
HeLa-APL
  GI50: 0.229 µM
HeLa-APL; [1]
  CC50: 2.38 µM
HeLa-APL; [2]
  TGI HELA-APL: 5.20E−07 Molar
A-549; A-549
  GI50: 0.178 µM
A-549; A-549, cell killing (cytotoxic effect)
  CC50: 3.05 µM
A-549; A-549, total growth inhibition (cytostatic effect)
  TGI A-549: 5.02E−07 Molar
IGROV
  GI50: 0.226 µM
IGROV; [1]
  CC50: 1.59 µM
IGROV; [2]
  TGI IGROV: 4.78E−07 Molar
DU-145; DU-145
  GI50: 0.0527 µM
DU-145; DU-145, cell killing (cytotoxic effect)
  CC50: 2.8 µM
DU-145; DU-145, total growth inhibition (cytostatic effect)
  TGI DU-145: 2.98E−07 Molar
SK-BR-3; SK-BR-3
  GI50: 0.207 µM
SK-BR-3; SK-BR-3, cell killing (cytotoxic effect)
  CC50: 0.816 µM
SK-BR-3; SK-BR-3, total growth inhibition (cytostatic effect)
  TGI SK-BR-3: 4.11E−07 Molar
K-562; Homo sapiens, K562, K-562
  GI50: 0.183 µM
K-562; K-562, cell killing (cytotoxic effect)
  CC50: 2.23 µM
K-562; K-562, total growth inhibition (cytostatic effect)
  TGI K-562: 4.45E−07 Molar
LoVo-Dox; Homo sapiens
  GI50: 0.42 µM
LoVo-Dox; [1]
  CC50: 4.42 µM
LoVo-Dox; [2]
  TGI LOVO-DOX: 1.03E−06 Molar
SK-MEL-28; MEL-28
  GI50: 0.138 µM
SK-MEL-28; MEL-28, cell killing (cytotoxic effect)
  CC50: 0.669 µM
SK-MEL-28; MEL-28, total growth inhibition (cytostatic effect)
  TGI MEL-28: 3.04E−07 Molar
LNCaP
  GI50: 0.131 µM
LNCaP; [1]
  CC50: 0.534 µM
LNCaP; [2]
  TGI LN-caP: 2.65E−07 Molar
HeLa; HELA
  GI50: 0.193 µM
HeLa; HELA, cell killing (cytotoxic effect)
  CC50: 0.703 µM
HeLa; HELA, total growth inhibition (cytostatic effect)
  TGI HELA: 3.68E−07 Molar
LoVo; LOVO
  GI50: 0.196 µM
LoVo; LOVO, cell killing (cytotoxic effect)
  CC50: 0.612 µM
LoVo; LOVO, total growth inhibition (cytostatic effect)
  TGI LOVO: 3.47E−07 Molar
PANC-1; PANC-1
  GI50: 0.241 µM
PANC-1; PANC-1, cell killing (cytotoxic effect)
  CC50: 3.34 µM
PANC-1; PANC-1, total growth inhibition (cytostatic effect)
  TGI PANC-1: 7.56E−07 Molar
IGROV-ET
  GI50: 0.278 µM
IGROV-ET; [1]
  CC50: 0.897 µM
IGROV-ET; [2]
  TGI IGROV-ET: 5.00E−07 Molar
HT-29; HT-29
  GI50: 0.411 µM
HT-29; HT-29, cell killing (cytotoxic effect)
  CC50: 5 µM
HT-29; HT-29, total growth inhibition (cytostatic effect)
  TGI HT-29: 9.31E−07 Molar

## COc1cc2c(cc1OC)-c1c(-c3ccc(OC(=O)CCCC[C@@H]4SC[C@@H]5NC(=O)N[C@@H]54)c(OC)c3)c3c4cc(OC)c(OC(=O)CCCC[C@@H]5SC[C@@H]6NC(=O)N[C@@H]65)cc4oc(=O)c3n1CC2 [Compound 47]
HeLa-APL; Homo sapiens
  GI50: 5.75 µM
  IC (TGI): 10.3 µM
HeLa-APL; [3]
  CC50: 10.3 µM
A-549; Homo sapiens, A549, A-549
  GI50: 3.26 µM
  IC (TGI): 10.3 µM
A-549; [4]
  CC50: 10.3 µM
IGROV; Homo sapiens
  GI50: 0.764 µM
  IC (TGI): 10.3 µM
IGROV; [3]
  CC50: 10.3 µM
DU-145; Homo sapiens, DU-145, DU-145
  GI50: 1.08 µM
  IC (TGI): 4.61 µM
DU-145; [5]
  CC50: 10.3 µM
SK-BR-3; Homo sapiens, SK-BR-3, SK-BR-3
  GI50: 2.29 µM
  IC (TGI): 6.01 µM
SK-BR-3; [6]
  CC50: 10.3 µM
K-562; Homo sapiens, K562, K-562
  GI50: 0.564 µM
  IC (TGI): 3.74 µM
K-562; [7]
  CC50: 10.3 µM
LoVo-Dox; Homo sapiens
  GI50: 8.09 µM
  IC (TGI): 10.3 µM
LoVo-Dox; [3]
  CC50: 10.3 µM
SK-MEL-28; [8]
  GI50: 2.07 µM
  IC (TGI): 10.3 µM
SK-MEL-28; [9]
  CC50: 10.3 µM
LNCaP; Homo sapiens, LNCaP
  GI50: 0.0884 µM
  IC (TGI): 1.59 µM
LNCaP; [10]
  CC50: 5.87 µM
HeLa; Homo sapiens, HeLa
  GI50: 0.537 µM
  IC (TGI): 4.79 µM
HeLa; [11]
  CC50: 10.3 µM
LoVo; Homo sapiens, LoVo
  GI50: 3.97 µM
  IC (TGI): 10.3 µM
LoVo; [12]
  CC50: 10.3 µM
PANC-1; Homo sapiens, PANC-1, PANC-1
  GI50: 3.86 µM
  IC (TGI): 10.3 µM
PANC-1; [13]
  CC50: 10.3 µM
IGROV-ET; Homo sapiens
  GI50: 2.07 µM
  IC (TGI): 10.3 µM
IGROV-ET; [3]
  CC50: 10.3 µM
HT-29; Homo sapiens, HT-29, HT-29
  GI50: 1.25 µM
  IC (TGI): 10.3 µM
HT-29; [14]
  CC50: 10.3 µM

## COc1cc(-c2c3c4cc(OC)c(O)cc4oc(=O)c3n3ccc4c([N+](=O)[O-])cccc4c23)ccc1O [Compound 53]
HeLa-APL; Homo sapiens
  GI50: 20.1 µM
  IC (TGI): 20.1 µM
HeLa-APL; [3]
  CC50: 20.1 µM
A-549; Homo sapiens, A549, A-549
  GI50: 5.66 µM
  IC (TGI): 20.1 µM
A-549; [4]
  CC50: 20.1 µM
IGROV; Homo sapiens
  GI50: 1.38 µM
  IC (TGI): 20.1 µM
IGROV; [3]
  CC50: 20.1 µM
DU-145; Homo sapiens, DU-145, DU-145
  GI50: 4.53 µM
  IC (TGI): 12.3 µM
DU-145; [5]
  CC50: 20.1 µM
SK-BR-3; Homo sapiens, SK-BR-3, SK-BR-3
  GI50: 1.99 µM
  IC (TGI): 9.49 µM
SK-BR-3; [6]
  CC50: 20.1 µM
K-562; Homo sapiens, K562, K-562
  GI50: 10.3 µM
  IC (TGI): 20.1 µM
K-562; [7]
  CC50: 20.1 µM
LoVo-Dox; Homo sapiens
  GI50: 20.1 µM
  IC (TGI): 20.1 µM
LoVo-Dox; [3]
  CC50: 20.1 µM
SK-MEL-28; [8]
  GI50: 4.03 µM
  IC (TGI): 15.5 µM
SK-MEL-28; [9]
  CC50: 20.1 µM
LNCaP; Homo sapiens, LNCaP
  GI50: 4.01 µM
  IC (TGI): 9.75 µM
LNCaP; [10]
  CC50: 20.1 µM
HeLa; Homo sapiens, HeLa
  GI50: 0.59 µM
  IC (TGI): 12.3 µM
HeLa; [11]
  CC50: 20.1 µM
LoVo; Homo sapiens, LoVo
  GI50: 11.1 µM
  IC (TGI): 20.1 µM
LoVo; [12]
  CC50: 20.1 µM
PANC-1; Homo sapiens, PANC-1, PANC-1
  GI50: 1.03 µM
  IC (TGI): 9.67 µM
PANC-1; [13]
  CC50: 20.1 µM
IGROV-ET; Homo sapiens
  GI50: 20.1 µM
  IC (TGI): 20.1 µM
IGROV-ET; [3]
  CC50: 20.1 µM
HT-29; Homo sapiens, HT-29, HT-29
  GI50: 2.17 µM
  IC (TGI): 20.1 µM
HT-29; [14]
  CC50: 20.1 µM

Reference: US7396837B2, “Antitumoral analogs of lamellarins” (Pharma Mar, S.A.U., priority 2002, dated 2008)
